In patent EP4729615A1, “SIRNA TARGETING MMP7, SIRNA CONJUGATE AND MEDICAL USE THEREOF” (Tuojie Biotech (Shanghai) Co., Ltd., priority 2023, dated 2024):
Strand notation (5' to 3'): a small letter for the sugar, then the base; units joined by * are phosphorothioate-linked, units joined directly phosphodiester-linked; [ ] holds rarer units or linkages, { } end groups; capitals alone tell only the bases. {I-14} = ligand I-14 conjugated at sense 5' end; m = 2'-O-methyl; f = 2'-fluoro

What was measured:
[1] = tested on: MMP7 mRNA; test: on-target activity of siRNA conjugates at 2 endogenous concentration points in HCC38 cells, Q-PCR (Example 10); assay type: cell-based, human; conditions: 24 h after transfection; for 2 nM remaining expression (%): siRNA conjugate 2 nM; for 10 nM remaining expression (%): siRNA conjugate 10 nM
Description: The siRNA conjugates were subjected to an in vitro molecular-level activity screening in HCC38 cells using 2 concentration gradients.
HCC38 cells were cultured at 37 °C with 5% CO2 in a 1640 culture medium containing 10% fetal bovine serum. 24 h prior to transfection, the HCC38 cells were seeded into a 96-well plate at a density of 1.5 × 10^4 cells per well, with each well containing 100 µL of the culture medium.
The cells were transfected with the siRNA conjugates using Lipofectamine RNAi Max (Invitrogen, 13778-150) according to the instructions. 0.3 µL of Lipofectamine RNAi Max was used for each well. A total of 2 concentration points were set for the siRNA conjugates, i.e., 10 nM and 2 nM, respectively. 24 h after transfection, RNA was extracted for Q-PCR to detect the activity of the siRNA conjugates. […] Table 9. Activity results of siRNA conjugates at 2 concentration points at the HCC38 cellular level

[2] = biological target: human recombinant αvβ6 protein (Homo sapiens, UniProt P06756+P18564); test: fluorescence polarization (FP) binding assay with fluorescent RGD peptide; conditions: 12 concentration points, highest 10 µM, 3-fold serial dilution
Description: The specific assay method is as follows: • 3.5 µL of test compound I-12 was added to a 384-well black plate. For the test compound, 12 concentration points were set up. The highest concentration was 10 µM, and 3-fold serial dilution was performed. DMSO control wells were used to determine the maximum signal, and 500 nM compound CWHM-12 (MCE, HY-18644) control wells were used as the minimum signal. Then, 3.5 µL of 4× human recombinant αvβ6 protein working solution was added. After incubation at room temperature for 15 min, 7 µL of 2× fluorescent RGD peptide solution was added to each well. The plate was incubated at room temperature for 1 h, and then FP signals were read using Envision. Using GraphPad Prism, the inhibition curve fitting was performed, and the IC50 value was calculated. The IC50 value (Z prime > 0.5) was calculated using the following formula: Y = Bottom + (Top−Bottom)/(1+10^(∧)((LogIC50−X)×HillSlope)) [formula] • X: Log inhibitor concentration; Y: inhibition rate %.

Chain of human recombinant αvβ6 protein (P06756 31-992 limits assumed): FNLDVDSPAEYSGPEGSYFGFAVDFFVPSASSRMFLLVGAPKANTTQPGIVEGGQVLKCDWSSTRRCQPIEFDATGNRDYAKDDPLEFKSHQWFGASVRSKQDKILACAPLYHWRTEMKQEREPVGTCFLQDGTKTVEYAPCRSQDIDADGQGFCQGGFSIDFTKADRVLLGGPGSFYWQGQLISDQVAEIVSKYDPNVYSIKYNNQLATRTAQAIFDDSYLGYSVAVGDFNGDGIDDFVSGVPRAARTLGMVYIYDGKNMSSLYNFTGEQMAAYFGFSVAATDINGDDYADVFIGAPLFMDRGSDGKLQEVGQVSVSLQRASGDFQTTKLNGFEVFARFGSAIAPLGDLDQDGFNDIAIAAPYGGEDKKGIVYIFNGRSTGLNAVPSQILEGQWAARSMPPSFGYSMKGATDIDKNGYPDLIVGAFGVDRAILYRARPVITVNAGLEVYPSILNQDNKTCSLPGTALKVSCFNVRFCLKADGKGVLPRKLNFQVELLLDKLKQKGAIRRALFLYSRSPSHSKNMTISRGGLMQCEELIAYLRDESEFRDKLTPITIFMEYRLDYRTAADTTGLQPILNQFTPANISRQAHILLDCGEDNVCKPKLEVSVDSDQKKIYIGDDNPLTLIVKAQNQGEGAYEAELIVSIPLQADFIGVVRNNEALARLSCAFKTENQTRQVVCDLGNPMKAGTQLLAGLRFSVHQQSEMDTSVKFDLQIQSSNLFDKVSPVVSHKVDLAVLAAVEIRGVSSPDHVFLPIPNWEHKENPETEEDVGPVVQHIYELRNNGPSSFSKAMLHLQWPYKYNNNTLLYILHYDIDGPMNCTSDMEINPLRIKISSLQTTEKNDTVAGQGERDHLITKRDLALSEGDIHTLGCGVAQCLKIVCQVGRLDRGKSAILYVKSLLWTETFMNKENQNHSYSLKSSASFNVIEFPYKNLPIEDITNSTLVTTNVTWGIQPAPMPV
Chain of human recombinant αvβ6 protein (P18564 22-707 limits assumed): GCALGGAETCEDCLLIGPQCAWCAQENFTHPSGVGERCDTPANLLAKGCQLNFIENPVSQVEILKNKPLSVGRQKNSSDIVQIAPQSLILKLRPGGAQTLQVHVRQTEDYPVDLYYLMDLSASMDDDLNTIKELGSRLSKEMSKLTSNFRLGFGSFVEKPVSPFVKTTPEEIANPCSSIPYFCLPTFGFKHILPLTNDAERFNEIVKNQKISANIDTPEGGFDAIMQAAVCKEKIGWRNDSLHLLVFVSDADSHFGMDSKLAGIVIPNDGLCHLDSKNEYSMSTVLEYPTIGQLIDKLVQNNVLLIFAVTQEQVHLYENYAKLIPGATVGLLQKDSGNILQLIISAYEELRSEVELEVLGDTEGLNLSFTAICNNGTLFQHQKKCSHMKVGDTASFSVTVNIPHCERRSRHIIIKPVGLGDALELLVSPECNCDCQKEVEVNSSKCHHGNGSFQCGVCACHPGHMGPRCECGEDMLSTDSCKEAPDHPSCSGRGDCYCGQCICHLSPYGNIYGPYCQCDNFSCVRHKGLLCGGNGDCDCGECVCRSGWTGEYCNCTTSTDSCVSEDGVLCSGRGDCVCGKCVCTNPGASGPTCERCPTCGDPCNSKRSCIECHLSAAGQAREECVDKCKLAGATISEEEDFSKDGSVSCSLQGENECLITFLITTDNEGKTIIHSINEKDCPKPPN

Molecule | 2 nM remaining expression (%) [1] | 10 nM remaining expression (%) [1] | IC50 [2]
TJR103313: siRNA conjugate containing I-14; SS SEQ ID NO 29 (I-14UmsGmsAmCmUmCmAfGfAfAmAmCmAmAmAmAmAmAmUm), AS SEQ ID NO 59 (sense {I-14}-mU*mG*mAmCmUmCfAfGfAmAmAmCmAmAmAmAmAmAmU; antisense AUUUUUUGUUUCUGAGUCAUA; antisense: chemistry not given here) | 8.05% | 4.23% | 
[N-]=[N+]=NCCOCCOCCOCCOCCOc1ccc(-c2ccc([C@H](CC(=O)O)NC(=O)CNC(=O)CCCNc3cc4ccccc4cn3)cc2)c2ccccc12 [I-12] |  |  | 79.9 nM
TJR103314: siRNA conjugate containing I-14; SS SEQ ID NO 30 (I-14AmsUmsUmCmAmAmGfAfAfAmGmAmAmAmUmAmGmAmAm), AS SEQ ID NO 60 (sense {I-14}-mA*mU*mUmCmAmAfGfAfAmAmGmAmAmAmUmAmGmAmA; antisense UUCUAUUUCUUUCUUGAAUUA; antisense: chemistry not given here) | 14.73% | 8.03% | 
TJR103312: siRNA conjugate containing I-14; SS SEQ ID NO 28 (I-14UmsGmsGmGmUmAmGfAfUfGmUmCmAmAmUmAmAmAmUm), AS SEQ ID NO 58 (sense {I-14}-mU*mG*mGmGmUmAfGfAfUmGmUmCmAmAmUmAmAmAmU; antisense AUUUAUUGACAUCUACCCACU; antisense: chemistry not given here) | 11.35% | 8.20% | 
